The results in this text go back to PubChem BioAssay AID1249 (Columbia University Molecular Screening Center, 2008).

Activity calls are given as the source filed them. The rule behind the calls is not given here.

A short description of one assay: cellular cytoskeleton assembly phenotype modulators – imaging, high-content imaging, retest and dose response, confirmation (AID 1249).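 For inhibition: plate controls were untreated cells for no effect and reference compound treated cells for full effect.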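 Note: compound exposure lasted 24 h before fixation.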 The settings on record: cell-based imaging, cytoskeleton assembly phenotype, high content; at 2 µM; stronger effect = higher value.
As for `CC1=C(C(=O)OCCOC(C)C)C(c2cccnc2)C2=C(CCCC2=O)N1` (centres undefined), the inhibition is -18.2% (inactive).

Turning to `CCOC(=O)/C(=C\c1cccnc1)C(=O)c1cc(C(C)=O)c(Nc2ccccc2)s1`, the inhibition was 5.1% (inactive).

As to `Cc1nc(NC(C)C)c2oc3ccccc3c2n1`, the inhibition was 4.2% (inactive).

Take `CCc1nnc(NC(=O)C2c3ccccc3Oc3ccccc32)s1`: the inhibition was 2.3% (inactive).

For the compound `O=C(OCn1ncc(Br)c(Br)c1=O)c1c(F)cccc1F`, the inhibition was -3.7% (inactive).

`CCCc1nc(SCC(=O)Nc2nnc(CC)s2)c2c(C)c(C)sc2n1`: the inhibition is 8.7% (inactive).

For the compound `COC(=O)c1ccccc1NC(NC(=O)c1ccco1)C(=O)c1ccc(C)cc1` (centres undefined), the inhibition was 2.9% (inactive).

Regarding `CCS(=O)(=O)N1CCC(C(=O)NC2CCCCC2)CC1`, the inhibition was 3.1% (inactive).

Consider `CCOc1ccccc1N1CCN(C(=O)c2cccc(-c3ccc(O)cc3)c2)CC1`, for which the inhibition is 6.2% (inactive).

For the compound `Cc1cccc(C(=O)Oc2ccccc2C2C[C@]3(C)CC(=O)NC3N2C(=O)c2cccc(C)c2)c1` (some centres undefined), the inhibition was -5.8% (inactive).

Consider `Cc1ccc(S(=O)(=O)N(CC(=O)NCc2ccco2)Cc2ccc(F)cc2)cc1`, for which the inhibition was -16.6% (inactive).

Regarding `COc1ccc2c(c1)CCc1c(C(=O)N3CC4(C)CC3CC(C)(C)C4)noc1-2` (centres undefined), the inhibition was 4.4% (inactive).

Take `CCNc1nc(NCC)n2c(SCc3ccc(F)cc3)nnc2n1`: the inhibition is 4.8% (inactive).

For `CCC(=O)N1c2ccc(S(=O)(=O)CCC(=O)N3CCn4c3nc3ccccc34)cc2CC1C` (centres undefined), the inhibition was 0% (inactive).

For `CCn1c(SCC(=O)N2CCN(c3cccc(Cl)c3)CC2)nc2ccccc2c1=O`, the inhibition is -3.6% (inactive).

In the case of `Cn1nc(C(=O)OCC(=O)N2CCc3ccccc32)c2ccccc2c1=O`, the inhibition is 4.3% (inactive).

Consider `Cc1oc2cc3c(C(=O)N4CCCCC4)c(C)oc3cc2c1C(=O)N1CCCCC1`, for which the inhibition was -4.7% (inactive).

As for `CCOC(=O)C(C)Oc1cccc2c(=O)n(CC(=O)NCc3ccc4c(c3)OCO4)ccc12` (centres undefined), the inhibition was 1.3% (inactive).

On to `Cc1nc2sc(C(c3ccc(Cl)cc3)N3CC(C)OC(C)C3)c(O)n2n1` (centres undefined), for which the inhibition was -4.4% (inactive).

With `CCCc1[nH]nc2c1C(c1cccnc1)C(C#N)=C(N)O2` (centres undefined), the inhibition was -4.7% (inactive).

As to `Cc1nn(-c2cc(C)c3ccccc3n2)c2c1C1C(C2)C1(C)C` (centres undefined), the inhibition was 3.3% (inactive).

For `COc1cccc(C(=O)Nc2cccc(-c3nc4ncccc4o3)c2C)c1`, the inhibition is 1.2% (inactive).

As for `Cc1ccc(-n2c([O-])nc(-[n+]3ccccc3)c2C=O)cc1`, the inhibition is -7.2% (inactive).

Take `Cc1ccc(-c2noc(CSc3nc(N)cc(N)n3)n2)cc1`: the inhibition was -8.4% (inactive).

As to `Cc1cc(/C=C2\SC(=Nc3ccc(F)cc3)NC2=O)c(C)n1-c1ccc(S(N)(=O)=O)cc1`, the inhibition is -17.9% (inactive).

For `O=[N+]([O-])c1ccc(/C=N/n2c(COc3ccccc3)n[nH]c2=S)cc1`, the inhibition is -4.5% (inactive).

Turning to `COc1cccc(OC)c1NC(=O)CN1CCC(NC(=O)c2cccc(F)c2)CC1`, the inhibition is 0.4% (inactive).

For `C=CCNC(=O)c1c(Cl)cccc1Cl`, the inhibition was -5.1% (inactive).

Consider `CCOc1ccc(N2C(=O)CSC2c2ccncc2)cc1` (centres undefined), for which the inhibition is 4.4% (inactive).

Turning to `COc1cc(/C=N/NC(=O)Nc2ccccc2)ccc1OCCOc1ccccc1C`, the inhibition was 3.1% (inactive).

For the compound `COC(=O)Sc1nc(N2CCOCC2)c2c(c1C#N)CC(C)(C)OC2`, the inhibition was 4.8% (inactive).

Regarding `COc1ccc(-n2nnnc2S(=O)(=O)CC(=O)N2CCCCC2)cc1`, the inhibition is 0.7% (inactive).

With `CC1CCN(C(=O)C2c3ccccc3C(=O)N3CCc4ccccc4C23)CC1` (centres undefined), the inhibition was -3.8% (inactive).

For `O=C(C1CCC1)N1CCc2cc(S(=O)(=O)Nc3ccc4c(c3)OCCO4)ccc21`, the inhibition is 3.8% (inactive).

Turning to `C=CCn1c(SCc2c(C)noc2C)nc2ccccc2c1=O`, the inhibition was 4.2% (inactive).

Take `COc1ccc(C(=O)C(CN2CCCC2)c2ccccc2)cc1` (centres undefined): the inhibition was 8.8% (inactive).

With `Cc1cc(C(=O)NN)c2cc(Br)ccc2n1`, the inhibition was -2% (inactive).

On to `CCOC(=O)c1cc2c(ccn2C)n1Cc1ccccc1C`, for which the inhibition is 2.4% (inactive).

As to `Cc1ccccc1OCC(=O)Nc1ccc2c(c1)COC2=O`, the inhibition was -15.6% (inactive).

In the case of `Cn1c(NC(=O)C2c3ccccc3Oc3ccccc32)cc(=O)n(C)c1=O`, the inhibition was -0.3% (inactive).

Take `CCCn1nc([N+](=O)[O-])c(C(C#N)c2nc3ccccc3s2)c(Cl)c1=O` (centres undefined): the inhibition is 1.3% (inactive).

Take `COC(=O)CCSc1nccn1Cc1ccccc1`: the inhibition is -9.8% (inactive).

Turning to `CCN1CCC2(CC1)C(C#N)=C(N)Oc1c2sc2nc(C)cc(C)c12`, the inhibition is -0.7% (inactive).

Turning to `COc1ccc2[nH]c(=O)c(CN(Cc3ccc4c(c3)OCO4)C(C)=O)cc2c1`, the inhibition was 5.1% (inactive).

As to `c1ccc(-c2nnc(CSc3nncs3)o2)cc1`, the inhibition is -7.1% (inactive).

Take `Cc1c(Cl)cccc1-n1ccnc1SCC(=O)O`: the inhibition was 2.2% (inactive).

Consider `Cc1cnc(NC(=O)C2CCCC2)s1`, for which the inhibition is -5.2% (inactive).

Take `O=C(O)C1CCC(N2C(=O)C3CCCCC3C2=O)CC1` (centres undefined): the inhibition was -0.4% (inactive).

For the compound `CCCOC(=O)c1ccc(NC(=O)Oc2ccccc2)cc1`, the inhibition is -5.5% (inactive).

With `O=C1C(Cc2ccccc2)NC(=S)N1c1ccccc1` (centres undefined), the inhibition is 3.1% (inactive).

In the case of `O=C(NCc1ccco1)C1CC(=O)N(c2ccc(F)cc2)C1` (centres undefined), the inhibition is 2.5% (inactive).

As for `Cc1csc(NC(=O)CSc2nnc(-c3cccs3)n2C)n1`, the inhibition was -10.1% (inactive).

As for `CCOc1ccc2ccccc2c1/C=N/n1cncn1`, the inhibition is 1.1% (inactive).

As to `C=CCN1C(=O)/C(=C2/Sc3ccccc3N2CCCS(=O)(=O)O)SC1=S`, the inhibition is 0.3% (inactive).

Turning to `CCN1CCN(CC(=O)Nc2nc3ccc(OC)cc3s2)CC1`, the inhibition is -8.7% (inactive).

As for `CCOC(=O)C1CCN(C(=O)c2cn(CCOC)c(=O)c3c2c2ccccc2n3C)CC1`, the inhibition is -1.6% (inactive).

As to `O=C1OCC(CO)(CO)N=C1NNc1ccccc1Cl`, the inhibition was 19.6% (inactive).

In the case of `O=C(Nc1ncc2c(n1)CC(c1ccco1)CC2=O)c1ccc(Cl)cc1` (centres undefined), the inhibition is -4.9% (inactive).

As for `COC(=O)c1cscc1NC(C)=O`, the inhibition was 13.2% (inactive).

With `CC(C)CN(C(=O)COC(=O)CCc1c[nH]c2ccccc12)C1CCS(=O)(=O)C1` (centres undefined), the inhibition was -23.6% (inactive).

As to `COc1ccc(C(=O)c2ccc(N(C)C)cc2)c2ccccc12`, the inhibition was -3.3% (inactive).

Take `Cc1ccccc1Cn1nc(C)c(NC(=O)c2cc(-c3cccs3)on2)c1C`: the inhibition is 3.8% (inactive).

For the compound `C=CCn1c(N2CCCC2)nc2c1c(=O)[nH]c(=O)n2C`, the inhibition is -4.9% (inactive).

As for `Cc1c(C(=O)N2CCN(c3ccccc3F)CC2)sc2ncn(CC(=O)N3CCOCC3)c(=O)c12`, the inhibition is -3.2% (inactive).

Regarding `C[n+]1ccc(/C=C/c2ccc(Br)cc2)cc1`, the inhibition was 7.4% (inactive).

Consider `O=S(=O)(C/C(=C/CO)S(=O)(=O)c1ccccc1)c1ccccc1`, for which the inhibition was -4.1% (inactive).

Turning to `O=C(O)Cc1ccc(NC(=O)C2CC=CCC2C(=O)O)cc1` (centres undefined), the inhibition is -9.1% (inactive).

Regarding `O=C(Nc1ccccc1)/C(=C\c1ccc2c(c1)OCO2)NC(=O)c1ccco1`, the inhibition was -0.8% (inactive).

As for `CSc1nc2nccc(-c3ccc(Oc4ccccc4)cc3)n2n1`, the inhibition is -15.1% (inactive).

Regarding `CC(C)C(=O)Nc1ccc(C(=O)NNC(=O)NC2CCCCC2)cc1`, the inhibition was -9.2% (inactive).

Take `CCOc1cc(C(=O)Nc2cccc3ncccc23)cc(OCC)c1OCC`: the inhibition was -20.6% (inactive).

`Cc1cc(C)cc(OCCCCCNCCO)c1`: the inhibition was -6.8% (inactive).

Take `CCOc1ccccc1C(=O)NCCC(=O)O`: the inhibition is 10.6% (inactive).

Take `CCNCC(O)COCC(O)CNCC` (centres undefined): the inhibition is 5.1% (inactive).

Regarding `Cc1ccc2nc(SCC(=O)Nc3cc(C(F)(F)F)ccc3N3CCOCC3)[nH]c2c1`, the inhibition is -6.4% (inactive).

As for `C=CCNC(=O)C1CC(=O)N(c2ccc(OCC(=O)Nc3cccc(OC)c3)cc2)C1` (centres undefined), the inhibition was -2% (inactive).

With `CCCOC(=O)CSC1=C(C#N)C(c2ccccc2OC)C(C#N)C(=O)N1` (centres undefined), the inhibition is -1.7% (inactive).

With `COc1ccc(NC(=O)C(NC(=O)c2ccccc2)C(C)C)cc1` (centres undefined), the inhibition is 4.5% (inactive).

Turning to `Cc1ccccc1CN1C(=O)C2(OCCCO2)c2ccccc21`, the inhibition is 3.7% (inactive).

For `O=C(NC(NC1CCS(=O)(=O)C1)C(=O)c1cccs1)c1ccccc1` (centres undefined), the inhibition is 6.8% (inactive).

In the case of `O=c1[nH]c2cccnc2n1Cc1ccccc1`, the inhibition was -3.8% (inactive).

With `O=c1c2ccccc2nc(/C=C/c2ccc([N+](=O)[O-])o2)n1CCCO`, the inhibition is -3.1% (inactive).

Turning to `CC(/C=C/c1ccco1)=N\NC(=O)c1cc(C)[nH]n1`, the inhibition was -14.4% (inactive).

Regarding `COc1ccc(-c2cc3ccc(OCc4nn[nH]n4)cc3oc2=O)cc1OC`, the inhibition is 2.8% (inactive).

`CN1CCc2nc3sc(C#N)c(N)c3c(-c3cccs3)c2C1`: the inhibition was 5.3% (inactive).

For `Cc1ccc(Cl)cc1NC1=C/C(=N\S(=O)(=O)c2cccs2)c2ccccc2C1=O`, the inhibition is -8% (inactive).

Turning to `CCn1c(=O)cc(OCC(=O)NCc2ccco2)c2ccccc21`, the inhibition is -5% (inactive).

Regarding `CC(=O)c1c(C)oc2ccc(N(C(C)=O)S(=O)(=O)c3ccc(Cl)c([N+](=O)[O-])c3)cc12`, the inhibition is -11.2% (inactive).

The assay is the same for the next values; noted with them: cell-based imaging, cytoskeleton assembly phenotype, high content; cell count; at 10 µM; stronger effect = lower value.
As to `COc1cc(C(=O)N/N=C/c2ccsc2C)cc(OC)c1OC`, the cell count turned out to be 34.2%.

Usually inhibition stands for the relative decrease from the control value, in per cent.
